From PubChem BioAssay (NCI)
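Each compound was tested at five concentrations against cells in 96-well plates for 48 hours. At the TGI there is no net growth.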

Legend:
Assay in all cases: DTP human tumour cell line panel, 48 h
[1] = tested on: SF-539 CNS
[2] = tested on: NCI/ADR-RES ovarian
[3] = tested on: U251 CNS
[4] = tested on: SN12C renal
[5] = tested on: A549 NSCLC
[6] = tested on: HOP-62 NSCLC
[7] = tested on: HT29 colon
[8] = tested on: RPMI-8226 leukemia
[9] = tested on: SK-MEL-28 melanoma
[10] = tested on: NCI-H522 lung
[11] = tested on: OVCAR-3 ovarian
[12] = tested on: SK-MEL-5 melanoma
[13] = tested on: COLO 205 colon
[14] = tested on: IGROV1 ovarian
[15] = tested on: UACC-257 melanoma
[16] = tested on: HS 578T breast
[17] = tested on: MALME-3M melanoma
[18] = tested on: EKVX NSCLC
[19] = tested on: A498 renal
[20] = tested on: SR leukemia
[21] = tested on: SW-620 colon
[22] = tested on: ACHN renal
[23] = tested on: KM12 colon
[24] = tested on: MDA-MB-435
[25] = tested on: RXF 393 renal
[26] = tested on: HCC-2998 colon
[27] = tested on: UACC-62 melanoma
[28] = tested on: HCT-116 colon
[29] = tested on: OVCAR-4 ovarian
[30] = tested on: NCI-H23 lung
[31] = tested on: OVCAR-8 ovarian
[32] = tested on: 786-0 renal
[33] = tested on: MDA-MB-231 breast
[34] = tested on: MDA-N
[35] = tested on: OVCAR-5 ovarian
[36] = tested on: SNB-19 CNS
[37] = tested on: DU-145 prostate
[38] = tested on: SF-295 CNS
[39] = tested on: HCT-15 colon
[40] = tested on: SF-268 CNS
[41] = tested on: CCRF-CEM leukemia
[42] = tested on: SK-OV-3 ovarian
[43] = tested on: TK-10 renal
[44] = tested on: PC-3 prostate
[45] = tested on: LOX IMVI melanoma
[46] = tested on: NCI-H460 lung
[47] = tested on: K-562 leukemia
[48] = tested on: NCI-H226 lung
[49] = tested on: HL-60(TB) leukemia
[50] = tested on: SNB-75 CNS
[51] = tested on: CAKI-1 renal
[52] = tested on: M14 melanoma
[53] = tested on: SK-MEL-2 melanoma
[54] = tested on: T-47D breast

Measured: TGI

N#CC(=N)c1ncn(CCO)c1NC(=O)C(F)(F)F
> 100 µM: [1] | [2] | [3] | [4] | [5] | [6] | [7] | [8] | [9] | [10] | [11] | [12] | [13] | [14] | [15] | [16] | [17] | [18] | [19] | [20] | [21] | [22] | [23] | [24] | [25] | [26] | [27] | [28] | [29] | [30] | [31] | [32] | [33] | [34] | [35] | [36] | [37] | [38] | [39] | [40] | [41] | [42] | [43] | [44] | [45] | [46] | [47] | [48] | [49] | [50] | [51] | [52] | [53] | [54]
